The record followed here is patent US20080221161A1, “HETEROCYCLIC MODULATORS OF TGR5 FOR TREATMENT OF DISEASE” (KALYPSYS, INC., priority 2007, published 2008).

By EC50 is commonly meant the concentration needed to bring the measured effect to its halfway point.

For the test, the target named is T1, human TGR5 (Homo sapiens, UniProt Q8TDU6).
T1 construct: expressed in transfected cells; host or cells: HEK-293 cells, stably transfected (pcDNA 3.1, Fugene6, geneticin selection)
T1 sequence (Q8TDU6 1-330): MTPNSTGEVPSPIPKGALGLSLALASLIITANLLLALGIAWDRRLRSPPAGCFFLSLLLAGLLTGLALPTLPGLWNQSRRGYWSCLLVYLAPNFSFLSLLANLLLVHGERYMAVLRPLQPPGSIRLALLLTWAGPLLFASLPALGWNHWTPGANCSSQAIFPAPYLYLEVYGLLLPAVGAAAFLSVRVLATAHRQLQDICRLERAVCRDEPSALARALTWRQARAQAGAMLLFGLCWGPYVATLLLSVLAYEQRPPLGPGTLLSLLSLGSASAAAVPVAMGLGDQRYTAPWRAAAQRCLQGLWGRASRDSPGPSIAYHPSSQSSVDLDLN
The experiment in a line: cAMP production assay in HEK293-TGR5 cells. In kind it is cell-based. As to conditions: HEK293 cells stably expressing human TGR5; 30 minutes stimulation; LANCE cAMP TR-FRET; read-out: cAMP Production in 293-TGR5 Cells EC50. The procedure: HEK293 cells stably expressing TGR5 (HEK293-TGR5) were established by stably transfecting HEK-293 cells with an expression vector (pcDNA 3.1, Invetrogen) inserted with human TGR5 cDNA using Fugene6 (Roche, Indianapolis, Ind.) according to conventional methods. Cells were grown in DMEM (invitrogen, Carlsbad, Calif.) supplemented with 10% FBS, 1% penicillin/streptomycin under geneticin selection. The presence of TGR5 transcripts in these cells was confirmed using branched DNA (bDNA, Genospectra, Inc., Fremont Calif.) following the manufacturer's protocol and using specific probes for human TGR5. cAMP production assay was performed in high throughput 1536 well format using LANCE cAMP detection kit (Perkin Elmer Inc., Boston, Mass.) according to the manufacturer's protocol. Briefly, HEK293-TGR5 cells were harvested using non-enzymatic cell dissociation buffer (Invitrogen, Carlsbad, Calif.) and suspended in DMEM supplemented with 0.1% FBS at a density of 800,000 cells/ml. Alexa antibody was added to the cell suspension, and 4 ul of the mixture was dispensed in white opaque tissue culture treated Greiner 1536 well plates (USA Scientific, Inc., Ocala, Fla.). After an overnight incubation at 37C in an atmosphere of 10% CO2 and 95% humidity, 1 ul of 5 mM IBMX (Sigma, St. Louis, Mo.) solution in DMEM was dispensed for a final concentration of 1 mM. Cells were then stimulated with test compounds for 30 minutes, after which time 5 ul of detection reagent was added and incubated for 1-7 hrs at room temperature. TR-FRET signal was detected using the Viewlux (Perkin Elmer Inc., Boston Mass.). EC50 values were determined using Graph Pad Prizm analysis (GraphPad Software, Inc).
For `COc1ccc2cc(CNCCc3ccccn3)c(-c3ccncc3)nc2c1` [Example 80, N-((7-Methoxy-2-(pyridin-4-yl)quinolin-3-yl)methyl)-2-(pyridin-2-yl)ethanamine], the concentration giving a half-maximal response (EC50) is greater than 10 µM. `Cc1cc2nc(-c3ccsc3)c(CNCCc3ccc(Br)cc3)cc2cc1O` [Example 132, 3-((4-Bromophenethylamino)methyl)-7-methyl-2-(thiophen-3-yl)quinolin-6-ol]: the EC50 was greater than 10 µM. Take `Cc1ccc2cc(CNCc3ccc(C(F)(F)F)cc3)c(-c3ccsc3)nc2c1` [Example 44, 1-(7-Methyl-2-(thiophen-3-yl)quinolin-3-yl)-N-(4-(trifluoromethyl)benzyl)methanamine]: the concentration for a half-maximal effect (EC50) is less than 10 µM. As for `COc1cc(OC)c2cc(CNCCc3ccc(Br)cc3)c(-c3ccsc3)nc2c1` [Example 54, 2-(4-Bromophenyl)-N-((5,7-dimethoxy-2-(thiophen-3-yl)quinolin-3-yl)methyl)ethanamine], the figure is less than 10 µM; as for `CSc1ccc2cc(CNCCc3ccc(Br)cc3)c(-c3ccsc3)nc2c1` [Example 39, 2-(4-Bromophenyl)-N-((7-(methylthio)-2-(thiophen-3-yl)quinolin-3-yl)methyl)ethanamine], less than 10 µM; as for `COc1ccc2cc(CNCc3ccc(F)c(Cl)c3)c(-c3ccncc3)nc2c1` [Example 92, N-(3-Chloro-4-fluorobenzyl)-1-(7-methoxy-2-(pyridin-4-yl)quinolin-3-yl)methanamine], less than 10 µM. For `COc1ccc2cc(CNCc3ccc(C(F)(F)F)cc3)c(-c3ccsc3)nc2c1` [Example 1, 1-(7-methoxy-2-(thiophen-3-yl)quinolin-3-yl)-N-(4-(trifluoromethyl)benzyl)methanamine], the half-maximal effective concentration (EC50) was greater than 10 µM.

As to `Oc1ccc2cc(CNCCc3ccc(Br)cc3)c(-c3ccccc3)nc2c1` [Example 100, 3-((4-Bromophenethylamino)methyl)-2-phenylquinolin-7-ol], the half-maximal effective concentration (EC50) is less than 10 µM.

Take `COc1ccc2cc(CNCCc3ccc(Cl)cc3)c(-c3ccccc3F)nc2c1` [Example 25, 2-(4-Chlorophenyl)-N-((2-(2-fluorophenyl)-7-methoxyquinolin-3-yl)methyl)ethanamine]: the EC50 is less than 10 µM. With `Oc1ccc2nc(-c3ccsc3)c(CNCCc3ccc(Cl)cc3)cc2c1` [Example 105, 3-((4-Chlorophenethylamino)methyl)-2-(thiophen-3-yl)quinolin-6-ol], the EC50 was less than 10 µM.

`FC(F)(F)Oc1ccc2cc(CNCCc3ccc(Cl)cc3)c(-c3cccnc3)nc2c1` [Example 14, 2-(4-Chlorophenyl)-N-((2-(pyridin-3-yl)-7-(trifluoromethoxy)quinolin-3-yl)methyl)ethanamine]: the EC50 is greater than 10 µM. As for `Sc1ccc2cc(CNCCc3ccc(Br)cc3)c(-c3ccsc3)nc2c1` [Example 114, 3-((4-Bromophenethylamino)methyl)-2-(thiophen-3-yl)quinoline-7-thiol], the figure is less than 10 µM; as for `CN(C)c1ccc2cc(CNCc3ccc(C(F)(F)F)cc3)c(-c3ccsc3)nc2c1` [Example 88, N,N-Dimethyl-2-(thiophen-3-yl)-3-((4-(trifluoromethyl)benzylamino)methyl)quinolin-7-amine], greater than 10 µM. Consider `COc1ccc2cc(CNCCc3ccc(Cl)cc3)c(Sc3ccncc3)nc2c1` [Example 95, 2-(4-Chlorophenyl)-N-((7-methoxy-2-(pyridin-4-ylthio)quinolin-3-yl)methyl)ethanamine], for which the 50% effective concentration (EC50) is greater than 10 µM. For `N#Cc1ccc2cc(CNCCc3ccc(Br)cc3)c(-c3ccsc3)nc2c1` [Example 136, 3-((4-Bromophenethylamino)methyl)-2-(thiophen-3-yl)quinoline-7-carbonitrile], the concentration giving a half-maximal response (EC50) is less than 10 µM. In the case of `CCOc1ccc2cc(CNCc3ccc(C(F)(F)F)cc3)c(-c3cccnc3)nc2c1` [Example 46, 1-(7-Ethoxy-2-(pyridin-3-yl)quinolin-3-yl)-N-(4-(trifluoromethyl)benzyl)methanamine], the EC50 is greater than 10 µM. For `Cc1cccc2cc(CNCCc3ccc(Cl)cc3)c(-c3ccsc3)nc12` [Example 4, 2-(4-Chlorophenyl)-N-((8-methyl-2-(thiophen-3-yl)quinolin-3-yl)methyl)ethanamine], the concentration for a half-maximal effect (EC50) was greater than 10 µM. `Oc1ccc2cc(CNCCc3ccc(Br)cc3)c(-c3cccs3)nc2c1` [Example 108, 3-((4-Bromophenethylamino)methyl)-2-(thiophen-2-yl)quinolin-7-ol]: the EC50 was greater than 10 µM. As for `COc1ccc2cc(CNCCc3ccc(Br)cc3)c(-c3csc4ccccc34)nc2c1` [Example 73, N-((2-(Benzo[b]thiophen-3-yl)-7-methoxyquinolin-3-yl)methyl)-2-(4-bromophenyl)ethanamine], the EC50 was less than 10 µM. For the compound `COc1ccc2cc(CNCc3ccc(C(F)(F)F)cc3)c(-c3cnn(C)c3)nc2c1` [Example 20, 1-(7-Methoxy-2-(1-methyl-1H-pyrazol-4-yl)quinolin-3-yl)-N-(4-(trifluoromethyl)benzyl)methanamine], the EC50 was less than 10 µM.

In the case of `CC(NCCc1ccc(Br)cc1)c1cc2ccc(O)cc2nc1-c1ccsc1` (racemic) [Example 144, (±)-3-(1-(4-Bromophenethylamino)ethyl)-2-(thiophen-3-yl)quinolin-7-ol], the EC50 is greater than 10 µM. As for `COc1ccc2cc(CNCCc3ccc(Cl)cc3)c(-c3cccnc3)nc2c1` [Example 7, 2-(4-Chlorophenyl)-N-((7-methoxy-2-(pyridin-3-yl)quinolin-3-yl)methyl)ethanamine], the EC50 was less than 10 µM.

With `Oc1ccc2nc(-c3ccsc3)c(CNCc3ccc(C(F)(F)F)cc3)cc2c1` [Example 111, 2-(Thiophen-3-yl)-3-((4-(trifluoromethyl)benzylamino)methyl)quinolin-6-ol], the EC50 is greater than 10 µM.

As for `COc1ccc2cc(CNCCc3ccc(Br)cc3)c(OC)nc2c1` [Example 148, 2-(4-Bromophenyl)-N-((2,7-dimethoxyquinolin-3-yl)methyl)ethanamine], the EC50 is greater than 10 µM. As for `FC(F)(F)Oc1ccc2cc(CNCc3ccc(C(F)(F)F)cc3)c(-c3cccnc3)nc2c1` [Example 15, 1-(2-(Pyridin-3-yl)-7-(trifluoromethoxy)quinolin-3-yl)-N-(4-(trifluoromethyl)benzyl)-methanamine], the figure is less than 10 µM; as for `FC(F)(F)Oc1ccc2cc(CNCCc3ccc(Cl)cc3)c(-c3ccsc3)nc2c1` [Example 13, 2-(4-Chlorophenyl)-N-((2-(thiophen-3-yl)-7-(trifluoromethoxy)quinolin-3-yl)methyl)ethanamine], greater than 10 µM; as for `Nc1ccc2cc(CNCCc3ccc(Br)cc3)c(-c3ccsc3)nc2c1` [Example 128, 3-((4-Bromophenethylamino)methyl)-2-(thiophen-3-yl)quinolin-7-amine], greater than 10 µM.

On to `COc1ccc2cc(CNCCc3ccc(Cl)cc3)c(-c3cnn(C)c3)nc2c1` [Example 21, 2-(4-Chlorophenyl)-N-((7-methoxy-2-(1-methyl-1H-pyrazol-4-yl)quinolin-3-yl)methyl)ethanamine], for which the concentration giving a half-maximal response (EC50) is less than 10 µM.

In the case of `COc1ccc2cc(CNCc3ccc(C(C)(C)C)cc3)c(-c3ccncc3)nc2c1` [Example 75, N-(4-tert-Butylbenzyl)-1-(7-methoxy-2-(pyridin-4-yl)quinolin-3-yl)methanamine], the EC50 is less than 10 µM.
